# Measurements as given in patent EP2520297A1, “Rubreserine and its derivates with antiparasitic activity” (Commissariat à l'Énergie Atomique et aux Énergies …, priority 2011, dated 2012).
# Where two headings read alike, the source gives them in different places.
# How the values were obtained:
# [1] = molecular target: T1, recombinant Arabidopsis thaliana GAT-ADCS (Arabidopsis thaliana, UniProt Q8LPN3); test: Determination of GAT-ADCS activities (glutamate or pABA production, fluorescence); type: biochemical
# T1 construct: made in house
# T1 sequence (Q8LPN3 46-919): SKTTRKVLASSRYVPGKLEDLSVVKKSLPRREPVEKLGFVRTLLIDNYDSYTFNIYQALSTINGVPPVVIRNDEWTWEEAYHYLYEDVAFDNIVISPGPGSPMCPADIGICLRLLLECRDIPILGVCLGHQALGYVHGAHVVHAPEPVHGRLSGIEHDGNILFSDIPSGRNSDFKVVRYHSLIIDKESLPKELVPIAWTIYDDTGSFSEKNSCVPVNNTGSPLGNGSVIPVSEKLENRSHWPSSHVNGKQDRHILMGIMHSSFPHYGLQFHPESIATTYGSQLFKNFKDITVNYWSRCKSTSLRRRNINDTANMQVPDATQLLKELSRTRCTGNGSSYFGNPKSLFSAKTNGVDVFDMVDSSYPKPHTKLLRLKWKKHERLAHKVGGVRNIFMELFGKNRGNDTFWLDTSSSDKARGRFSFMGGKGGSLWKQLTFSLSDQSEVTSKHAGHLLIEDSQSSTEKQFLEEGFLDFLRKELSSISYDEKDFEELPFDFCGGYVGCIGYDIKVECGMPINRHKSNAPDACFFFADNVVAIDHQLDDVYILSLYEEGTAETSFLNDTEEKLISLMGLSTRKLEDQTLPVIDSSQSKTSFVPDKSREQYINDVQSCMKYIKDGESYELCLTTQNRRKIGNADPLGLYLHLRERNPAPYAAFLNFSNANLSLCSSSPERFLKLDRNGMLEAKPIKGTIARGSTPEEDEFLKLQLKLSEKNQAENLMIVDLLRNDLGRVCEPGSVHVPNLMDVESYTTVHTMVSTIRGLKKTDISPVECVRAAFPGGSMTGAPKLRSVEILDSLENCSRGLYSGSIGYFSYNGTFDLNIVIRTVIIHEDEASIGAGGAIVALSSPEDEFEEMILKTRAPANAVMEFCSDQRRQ
# Method: Both proteins were expressed and purified as described in the publication of D. Camara et al., Archives of Biochemistry and Biophysics 505 (2011) 83-90.
# GAT-ADCS activity can be determined by measuring the production of either glutamate or pABA. Standard assays contained 100 mM Tris/HCl (pH 8.0), 5 mM MgCl2, 5% V/V glycerol, 0 to 0.5 mM L-glutamine, 0.1 mM chorismate, 9 yg ml^-1 (90 nM) of the recombinant Arabidopsis thaliana GAT-ADCS and either 1 mM NAD and an excess of glutamate deshydrogenase (GDH) for glutamate determination, or an excess of Escherichia coli ADCL (20 µg ml^-1, 600 nM) for pABA determination. Reactions (final volume 80 µl) were run in the wells of a 96 well microplate (Greiner) and changes in fluorescence were continuously monitored with a microplate scanning spectrophotometer Safir 2 (Tecan). The glutamate production was followed by the fluorescence emission of NADH at 450 nm (excitation 340 nm). The pABA production was directly followed by the increase of the fluorescence emission at 340 nm (excitation 290 nm).
# The equipment involved an automated screening station (Tecan Genesis 2000, Lyon, France), including a microplate reader. The platform is controlled by software for driving of serial devices and assays scheduling (Tecan Gemini 4.2 and FACTS 4.82 software). The library of compounds was purchased from The Prestwick Chemical Library®. This library contains 1200 molecules, 100% being marketed drugs, supplied at a 5 mM concentration in DMSO. The final concentration used in the enzymatic assay was 100 µM, and it was verified in separate control experiments that 2% DMSO had no effect on the activity. The enzymatic test used to determine GAT-ADCS activity in primary and secondary screenings was based on glutamate determination, as described above. After optimization of the assay, the Z' factor was comprised between 0.68 and 0.84.
# [2] = tested on: Toxoplasma gondii tachyzoites (RH-YFP2 strain); test: Toxoplasma gondii invasion assay in human fibroblasts; type: cell-based; conditions: for IC50: Toxoplasma gondii, Fibroblast, calculated from the curves of Figures 3A and 3B (invasion and intracellular replication)
# Method: (§1) Toxoplasma gondii tachyzoites (RH-YFP2 strain) were propagated in human foreskin fibroblasts (HFFs). Human cells were grown in DMEM supplemented with 100 U/mL penicillin, […] streptomycin, 2 mM glutamine, and 10% FBS (Gibco). To obtain extracellular parasites, host cells were forced through a 26.5 gauge needle, and then the released parasites were purified by filtration through a 3 µm polycarbonate membrane before use.
# For the invasion assay, RH-YFP2 parasites were incubated for 5 hours with the different drugs. Then 10^6 parasites/well were centrifuged for 30 seconds at 1300 rpm on HFF monolayers to synchronize invasion and wells were incubated for 15 minutes in a water bath at 37°C. Wells were washed three times with cold PBS to eliminate extracellular parasites and cells were fixed in 2.5% formaldehyde/PBS for 30 minutes and stored in PBS at 4°C until staining. To distinguish intracellular from extracellular parasites, cells were incubated with the primary antibody mAb Tg05-54 to detect the major Toxoplasma surface protein SAG1 (TgSAG1), then with Texas Red-conjugated goat anti-mouse secondary antibody (Molecular Probes). […] Nuclei were stained with Hoechst 33258 (Molecular Probes). To determine the number of intracellular parasites, 12 randomly selected fields were counted per well and per experiment with a Zeiss Axioplan 2 microscope equipped for epifluorescence and phase-contrast. Invasion was expressed as % of the number of intracellular parasites recorded in non-treated cells.
# Toxoplasma gondii = conditions: read-out: IC50 generally reported in the literature; P. Meneceur, Antimicrob. Agents Chemother. 52 (2008); cited from earlier work
# [3] = tested on: 3D7 strain of Plasmodium falciparum; test: Plasmodium falciparum SYBR Green 1-based fluorescence growth assay; type: cell-based; conditions: 3D7, 96 h
# Method: The 3D7 strain of Plasmodium falciparum was maintained in O+ blood. A rubreserine 10 mM stock concentration was made up in 1 × PBS pH = 7.5. This stock solution was then diluted serially to obtain the growth curve. Growth inhibition was measured after 96 hours by using an in vitro SYBR Green 1-based fluorescence growth assay, as previously described (T. N. Bennett et al., Antimicrob. Agents Chemoter. (2004) 48 1807-1810; M. Smilkstein et al., Antimicrob. Agents Chemoter. (2004) […] 1803-1806).
# [4] = tested on: Toxoplasma gondii tachyzoites (RH-YFP2 strain); test: Toxoplasma gondii intracellular proliferation assay; type: cell-based
# Method: as §1
# For the proliferation assay, 10^5 parasites/well were centrifuged on HFF monolayers for 30 seconds at 1300 rpm and incubated for 15 minutes in a water bath at 37°C for invasion. Wells were then washed three times with PBS to eliminate extracellular parasites and drugs were added. After 24 hours at 37°C in a humidified atmosphere containing 5% CO2, cells were fixed as described above. The number of parasites from up to 200 individual vacuoles was counted for each drug concentration.
# ADCL = molecular target: T2, ADCL (Escherichia coli, UniProt P28305); test: Control experiment on ADCL; type: biochemical; conditions: control experiments
# T2 construct: made in house
# T2 sequence (P28305 whole entry): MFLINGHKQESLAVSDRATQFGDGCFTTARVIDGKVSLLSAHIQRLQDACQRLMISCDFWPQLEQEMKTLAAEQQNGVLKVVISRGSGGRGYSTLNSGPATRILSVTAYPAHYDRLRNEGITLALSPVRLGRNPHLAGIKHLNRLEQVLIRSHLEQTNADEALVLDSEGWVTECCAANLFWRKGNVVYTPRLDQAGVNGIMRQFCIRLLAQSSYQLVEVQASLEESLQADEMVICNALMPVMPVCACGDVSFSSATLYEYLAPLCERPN
# [5] = tested on: Arabidopsis thaliana (ecotype Columbia) seedlings; test: Arabidopsis thaliana seedling growth on agar plates; type: in vivo
# Method: Arabidopsis thaliana (ecotype Columbia) seedlings were grown on plates containing Murashige and Skoog medium, […], plus the various molecules to be tested. Seeds were first sterilized by soaking for 15 minutes in a solution containing 0,095% Tween® 20 and 0,57% sodium hypochlorite before to be laid on the agar medium. The plates were conserved in the dark at 4°C for 48 hours, and then transferred in a green house (20°C, 80% humidity, 150 µE.m^-2.s^-1, 12 hours light period). The number of seedlings at the two leaf stage (rosette stage) was counted after 2 weeks.
# [6] = tested on: confluent human fibroblast cells; test: Effect on confluent human fibroblast cells; type: cell-based; conditions: concentrations up to 50 µM
# Method: Firstly, it was verified that rubreserine concentrations up to 50 µM had no effect on confluent human fibroblast cells. The effect of rubreserine on Toxoplasma gondii parasites was then studied in two situations: • i) in invasion of human fibroblasts, and • ii) in intracellular development of the parasites.
# ADCS = ADCS (Escherichia coli, UniProt P05041); conditions: purified enzyme; M. C. Kozlowski et al., J. Am. Chem. Soc. 117 (1995); cited from earlier work
# Sequence of ADCS (P05041 whole entry): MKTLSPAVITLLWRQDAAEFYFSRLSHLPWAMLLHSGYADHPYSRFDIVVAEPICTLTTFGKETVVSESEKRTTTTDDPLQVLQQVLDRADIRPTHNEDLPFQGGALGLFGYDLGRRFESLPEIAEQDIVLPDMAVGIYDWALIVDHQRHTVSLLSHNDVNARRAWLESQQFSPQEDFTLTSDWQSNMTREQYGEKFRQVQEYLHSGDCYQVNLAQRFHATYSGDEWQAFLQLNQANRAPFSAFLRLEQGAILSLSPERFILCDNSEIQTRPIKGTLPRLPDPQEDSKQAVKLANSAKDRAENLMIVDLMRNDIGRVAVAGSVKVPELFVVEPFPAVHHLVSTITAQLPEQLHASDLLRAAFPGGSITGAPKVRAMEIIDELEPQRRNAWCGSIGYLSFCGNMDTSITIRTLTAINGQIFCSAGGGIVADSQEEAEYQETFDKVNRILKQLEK
smiles,measurement,setting,value
"CN1CCC2(C)c3cc(O)ccc3N(C)C12 (single isomer, unassigned) [eseroline, reference compound]",effect on the enzyme activity,[1],no or little effect
"Nc1ccc(S(=O)(=O)Nc2ncccn2)cc1 [sulfadiazine, reference compound]",IC50,[2],> 50 µM
same,IC50,Toxoplasma gondii,> 30 µM
CN1CCC2(C)C3=CC(=O)C(=O)C=C3N(C)C12 (stereo not shown) [rubreserine],IC50,[3],~1.2 µM
same,period of incubation required to obtain maximal inhibition,"[1]; GAT activity, 10 and 20 µM",20 min
same,Ki,"[1]; bifunctional GAT-ADCS, summary statement, read-out: apparent inhibitory constant (Ki)",< 10 µM
same,type of inhibition,"[1]; decreased Vm for pABA production, increased Km for glutamine",mixed-type inhibition
same,inhibitory effect after incubation with a reducing agent,[1]; incubation with dithiothreitol (DTT),suppressed the inhibitory effect
same,Ki,"[1]; pABA production, varying glutamine, 100 µM chorismate, 20 minutes incubation with rubreserine, estimated from the curves, read-out: Ki",~4 µM
same,Ki,"[1]; pABA production, varying glutamine, 100 µM chorismate, 20 minutes incubation with rubreserine, estimated from the curves, read-out: αKi",~9 µM
same,number of intracellular parasites,"[2]; 20 µM, parasites incubated 5 hours with drug, 15 minutes contact with human cells",reduced two times
same,IC50,[2],~20 µM
same,efficiency compared with sulfanilamide and sulfadiazine,[2]; invasion of human fibroblasts or intracellular replication,more efficient
same,inhibition in the presence of pABA or 5-FTHF,[4]; 20 µM rubreserine with 100 µM pABA or 100 µM 5-FTHF,significantly reversed the inhibition
same,number of parasites in the parasitophorous vacuoles,"[4]; 24 hours after invasion, 200 vacuoles counted",decreased
same,inhibition in combination with pyrimethamine,"[4]; rubreserine 20 µM with pyrimethamine 0.4 µM, compared to rubreserine alone",increased
same,effect on ADCL,ADCL,no effect
same,growth inhibition with 5-formyl tetrahydrofolate,"[5]; 200 µM 5-FTHF together with rubreserine, lower extent than pABA",able to revert the inhibitory effect
same,growth inhibition with pABA,[5]; agar plates supplemented with 200 µM pABA together with rubreserine,suppressed or largely reduced
same,growth of seedlings,"[5]; agar plates, various concentrations (50 or 100 µM), two weeks",dose-dependent growth inhibition
same,effect on confluent human fibroblast cells,[6],no effect
C=C(OC1C(O)=C(C(=O)O)C=CC1N)C(=O)O (stereo not shown) [2-hydroxy-4-amino-4-deoxy chorismate],Ki,ADCS,38 µM
